Values quoted from earlier work in patent US20060100214A1, “Fast dissolving and taste masked oral dosage form comprising sildenafil” (priority 2002, published 2006).

SMILES | water solubility (as said in US 20020002172A1) | maximal solubility (at pH2.0)
CCCc1nn(C)c2c(=O)[nH]c(-c3cc(S(=O)(=O)N4CCN(C)CC4)ccc3OCC)nc12 [sildenafil free base, 1-[[3-(6,7-dihydro-1-methyl-7-oxo-3-propyl-1H-pyrazolo[4,3-d]pyrimidin-5-yl)-4-ethoxyphenyl]sulfonyl]-4-methylpiperazine] | very low water solubility | 
CCCc1nn(C)c2c(=O)[nH]c(-c3cc(S(=O)(=O)N4CCN(C)CC4)ccc3OCC)nc12.O=C(O)CC(O)(CC(=O)O)C(=O)O [Sildenafil citrate, 1-[[3-(6,7-dihydro-1-methyl-7-oxo-3-propyl-1H-pyrazolo[4,3-d]pyrimidin-5-yl)-4-ethoxyphenyl]sulfonyl]-4-methylpiperazine citrate] |  | approximately 24 mg/ml
